From patent US4542210A, “1-β-D-Arabinofuranosyl-(E)-5-(2-halogenovinyl)-uracil-5'-phosphate, preparation thereof and use thereof” (Yamasa Shoyu Kabushiki Kaisha, priority 1981, dated 1985)
Converted amounts (≈) assume the structure as drawn. Where a name gives a salt, the structure may show the parent alone. Read-outs that look alike come from different tables or passages of the source.

Legend:
[1] = test system: HSV-1-VR-3; experiment: Antiviral activity in human embryonic lung fibroblasts (method of Sidwell et al), HSV-1-VR-3; format: cell-based, herpes simplex virus type 1 strain VR3; parameters: MIC: minimum inhibitory concentration at which HSV induced cytopathogenic effects were depressed more than 50%: unit not given here
Protocol: (§1) According to the method of Sidwell et al (Applied Microbiology, 22, (5), 797 (1971)), with the use of human embryonic lung fibroblasts, the antiviral activities of BVAUP and CVAUP were tested, with BVAU, CVAU and 5-iodo-2'-deoxyuridine (IDU) as controls.
(§2) effects were depressed more than 50%;
^1 HSV1-VR-3: herpes simplex virus type 1 strain VR3

[2] = test system: HSV-2-MS; experiment: Antiviral activity in human embryonic lung fibroblasts (method of Sidwell et al), HSV-2-MS; format: cell-based, herpes simplex virus type 2 strain MS; parameters: MIC: minimum inhibitory concentration at which HSV induced cytopathogenic effects were depressed more than 50%: unit not given here
Protocol: as §1, §2
^2 HSV2-MS: herpes simplex virus type 2 strain MS

[3] = test system: RE strain of HSV (type 1); experiment: Ulcerative herpetic keratitis in pigmented rabbits, ointment treatment; format: in vivo, RE strain; pigmented rabbits; parameters: Effect (lesion inhibition): unit not given here; conditions: for Effect (lesion inhibition): control 0; for % score: control 100
Protocol: (1) Pigmented rabbits, weighing between 2.0 and 3.0 kg, were anesthetised with intravenous pentobarbital sodium (30 mg/kg) and given a retrobulbar injection of 0.5 ml of 1% procaine. For inoculation a suspension of the RE strain of HSV (type 1) was drawn into a fine glass capillary tube (British Journal of Ophthalmology, Vol. 63, No. 6, 425-428 (1979).
After inoculation the eye was left open for 30 seconds and then the lids were closed with cellophane tape. The same procedure was repeated on the other eye. In one group of 3 rabbits the right eyes were treated with 1% BVAUP ointment and the left eyes with 1% BVAU ointment, or vice versa. In another group 3 eyes received no treatment as controls. The treatment was started 48 hours after inoculation and continued every 2 hours during the daytime 5 times a day for 4 days. The eyes were examined 48 hours after inoculation and then every 24 hours with a photo-slit lamp after applying 1% Bengal rose. Each inoculation site was scored according to the extent of the circumference infected.
The total daily score for each eye was calculated and expressed as a percentage of the score (percentage score) immediately before treatment. The therapeutic efficacies of BVAUP and BVAU against ulcerative herpetic keratitis were compared by calculating their average percentage scores.
(2) 0.3% BVAUP ointment and 3% BVAUP ointment were respectively prepared, and were subjected to the similar pharmacological test as shown in (1).

[4] = Solubility in water; format: physicochemical
[5] = Acute toxicity (LD50) in mice; conditions: mouse, in vivo
[6] = test system: type 2 herpes (HSV-2); experiment: Antiviral activity against HSV-2 compared with HSV-1 or VZV (general statement)
[7] = 1% ointment, 5 times a day for 4 days
[8] = 1% ointment, 5 times a day for 4 days, control 97.0

Row | SMILES | MIC: minimum inhibitory concentration at which HSV induced cytopathogenic effects were depressed more than 50% [1] | VR: virus rating [1] | MIC: minimum inhibitory concentration at which HSV induced cytopathogenic effects were depressed more than 50% [2] | VR: virus rating [2] | Effect (lesion inhibition) [3, 7] | Total score per eye [3, 8] | % score [3, 7] [%] | solubility [4] [mg/mL] | Effect (lesion inhibition) ([3]; 0.3% ointment) | Total score per eye ([3]; 0.3% ointment, control 88.7) | % score ([3]; 0.3% ointment) [%] | Effect (lesion inhibition) ([3]; 3% ointment) | % score ([3]; 3% ointment) [%] | Total score per eye ([3]; 3% ointment, control 114.0) | LD50 ([5]; ip, intraperitoneally, read-out: LD50, intraperitoneal) [mg/kg] | LD50 ([5]; iv, intravenously, read-out: LD50, intravenous) [mg/kg] | antiviral activity against HSV-2 [6]
1 | O=c1[nH]c(=O)n([C@@H]2O[C@H](CO)[C@@H](O)[C@@H]2O)cc1/C=C/Br [BVAU, 1-β-D-arabinofuranosyl-(E)-5-(2-bromovinyl)uracil, reference compound] | 0.032 | 3.7 | 32 | 1.1 | 43.0 | 55.3 | 57.0 | 4 (≈ 11.5 mM) | – | – | – | – | – | – | – | – | –
2 | O=c1[nH]c(=O)n([C@@H]2O[C@H](COP(=O)(O)O)[C@@H](O)[C@@H]2O)cc1/C=C/Br [BVAUP, 1-β-D-arabinofuranosyl-(E)-5-(2-bromovinyl)uracil-5'-phosphate] | 0.032 | 3.8 | 32 | 1.1 | 53.9 | 44.7 | 46.1 | – | 38.3 | 54.7 | 61.7 | 71.9 | 28.1 | 32.0 | 1730 | 1610 | lower than that against the type 1 herpes (HSV-1) or VZV
3 | O=c1[nH]c(=O)n([C@@H]2O[C@H](CO)[C@@H](O)[C@@H]2O)cc1/C=C/Cl [CVAU, 1-β-D-arabinofuranosyl-(E)-5-(2-chlorovinyl)uracil] | 0.032 | 3.7 | 100 | 0.7 | – | – | – | – | – | – | – | – | – | – | – | – | –
4 | O=c1[nH]c(=O)n([C@@H]2O[C@H](COP(=O)(O)O)[C@@H](O)[C@@H]2O)cc1/C=C/Cl [CVAUP, 1-β-D-arabinofuranosyl-(E)-5-(2-chlorovinyl)uracil-5'-phosphate] | 0.032 | 3.7 | 320 | 0.5 | – | – | – | – | – | – | – | – | – | – | – | – | –
5 | O=c1[nH]c(=O)n([C@H]2C[C@H](O)[C@@H](CO)O2)cc1I [IDU, 5-iodo-2'-deoxyuridine] | 3.2 | 2.4 | 3.2 | 2.2 | – | – | – | – | – | – | – | – | – | – | – | – | –
6 | O=c1[nH]c(=O)n([C@@H]2O[C@H](COP(=O)(O)O)[C@@H](O)[C@@H]2O)cc1/C=C/Br [disodium salt of 1-β-D-arabinofuranosyl-(E)-5-(2-bromovinyl)uracil-5'-phosphate] | – | – | – | – | – | – | – | ~500 | – | – | – | – | – | – | – | – | –
